Measured values from patent US8580941B2, “Epididymal lipocalin gene and uses thereof” (Vanderbilt University, priority 2000, dated 2013).

System: mEP17 protein
Assay: Regulation of mEP17 protein expression (Western blotting and immunohistochemistry) in treated mice
Format: in vivo, mouse
From the text: The regulation of mEP17 protein expression was investigated using Western blotting and immunohistochemistry in castrated mice, castrated testosterone supplemented mice, unilateral castrated mice, unilateral cryptorchid mice, and busulphan-treated mice. As previously observed at the mRNA level (FIGS. 15A-15C), mEP17 protein disappeared from the initial segment two days after bilateral castration and was not restored by testosterone treatment. Similarly, after unilateral castration, mEP17 protein disappeared from the castrated side, but not from the non-castrated side.
To determine whether germ cell-associated testicular factors can regulate mEP17, spermatogenesis was disrupted using cryptorchidism or busulphan treatment. One month following cryptorchidism, mEP17 protein was not detected in the initial segment of the cryptorchid epididymis but was detected at normal levels in the scrotal epididymis. In cryptorchidism, the testis and the epididymis are exposed to abdominal temperature. To distinguish the effects of abdominal temperature on the testis or epididymis, spermatogenesis was also disrupted by busulphan treatment.

SMILES	level of mEP17 protein compared to untreated controls (busulphan-treated mice, following a 35-day treatment (disruption of spermatogenesis))	mEP17 protein in the initial segment of the epididymis after testosterone treatment (castrated testosterone supplemented mice, protein disappeared two days after bilateral castration)
CS(=O)(=O)OCCCCOS(C)(=O)=O [busulphan]	drastically reduced	–
C[C@]12CC[C@H]3[C@@H](CCC4=CC(=O)CC[C@@]43C)[C@@H]1CC[C@@H]2O [testosterone]	–	not restored
